Some results are limits rather than exact numbers.

For the assay, the system named is mutant Huntington (HTT) protein. Briefly: HTT Mutant HTRF iPSC assay (mHTT protein lowering). The class given is cell-based. To be noted: human iPSC derived from a HTT patient with a poly-Q49 mutation. Background: Time-resolved FRET reads energy transfer from a long-lived donor to a nearby acceptor.

For the compound `Cc1cn2cc(-c3cc(F)c4nn(C5CCNCC5)cc4c3)cc(F)c2n1` [Compound 136, 7-fluoro-5-(8-fluoro-2-methylimidazo[1,2-a]pyridin-6-yl)-2-(piperidin-4-yl)-2H-indazole], the 50% inhibitory concentration (IC50) (in general, the concentration that inhibits the measured activity by half) was 100 to 1000 nM. For the compound `Cc1cn2cc(-c3cc(F)c4nn(C5CCNCC5)nc4c3)cc(F)c2n1` [Compound 137, 4-fluoro-6-(8-fluoro-2-methylimidazo[1,2-a]pyridin-6-yl)-2-(piperidin-4-yl)-2H-benzo[d][1,2,3]triazole], the IC50 lay within 100 to 1000 nM. The result for `Cn1cc2cc(-c3cc(F)c4nn(C5CCNCC5)nc4c3)cc(F)c2n1` [Compound 138, 4-fluoro-6-(7-fluoro-2-methyl-2H-indazol-5-yl)-2-(piperidin-4-yl)-2H-benzo[d][1,2,3]triazole] reads 100 to 1000 nM; that for `Cc1cn2nc(-c3cc(F)c4nn(C5CCNCC5)nc4c3)cc(C)c2n1` [Compound 139, 6-(2,8-dimethylimidazo[1,2-b]pyridazin-6-yl)-4-fluoro-2-(piperidin-4-yl)-2H-benzo[d][1,2,3]triazole], below 100 nM. In the case of `Cc1cn2nc(-c3cc(F)c4[nH]c(C5CCNCC5)nc4c3)cc(C)c2n1` [Compound 140, 6-(7-fluoro-2-(piperidin-4-yl)-1H-benzo[d]imidazol-5-yl)-2,8-dimethylimidazo[1,2-b]pyridazine] it was below 100 nM. The result for `Cn1cc2cc(-c3cc(F)c4[nH]c(C5CCNCC5)nc4c3)cc(F)c2n1` [Compound 141, 7-fluoro-5-(7-fluoro-2-(piperidin-4-yl)-1H-benzo[d]imidazol-5-yl)-2-methyl-2H-indazole] reads 1000 to 9000 nM; that for `Cc1cc(-c2cc(F)c3[nH]c(C4CCNCC4)nc3c2)cc2cn(C)nc12` [Compound 142, 5-(7-fluoro-2-(piperidin-4-yl)-1H-benzo[d]imidazol-5-yl)-2,7-dimethyl-2H-indazole], 1000 to 9000 nM. In the case of `Cc1cn2cc(-c3cc(F)c4[nH]c(C5CCNCC5)nc4c3)cc(F)c2n1` [Compound 143, 7-fluoro-5-(8-fluoro-2-methylimidazo[1,2-a]pyridin-6-yl)-2-(piperidin-4-yl)-1H-benzo[d]imidazole], the IC50 is 1000 to 9000 nM. Take `Cc1cn2cc(-c3cc(F)c4[nH]c(C5CCNCC5)nc4c3)cc(Cl)c2n1` [Compound 144, 5-(8-chloro-2-methylimidazo[1,2-a]pyridin-6-yl)-7-fluoro-2-(piperidin-4-yl)-1H-benzo[d]imidazole]: the IC50 is 1000 to 9000 nM. The result for `Cc1cn2cc(-c3cc(F)c4[nH]c(C5CCNCC5)nc4c3)cc2c(C)n1` [Compound 145, 5-(1,3-dimethylpyrrolo[1,2-a]pyrazin-7-yl)-7-fluoro-2-(piperidin-4-yl)-1H-benzo[d]imidazole] reads 1000 to 9000 nM; that for `Cn1nc2ccc(-c3cc(F)c4[nH]c(C5CCNCC5)nc4c3)cc2n1` [Compound 146, 5-(7-fluoro-2-(piperidin-4-yl)-1H-benzo[d]imidazol-5-yl)-2-methyl-2H-benzo[d][1,2,3]triazole], 1000 to 9000 nM. In the case of `Cc1cn2cc(-c3cc(F)c4[nH]c(C5CCNCC5)nc4c3)cc(C)c2n1` [Compound 147, 5-(2,8-dimethylimidazo[1,2-a]pyridin-6-yl)-7-fluoro-2-(piperidin-4-yl)-1H-benzo[d]imidazole] it was 1000 to 9000 nM. In the case of `Cn1nc2cc(-c3cc(F)c4[nH]c(C5CCNCC5)nc4c3)cc(F)c2n1` [Compound 148, 4-fluoro-6-(7-fluoro-2-(piperidin-4-yl)-1H-benzo[d]imidazol-5-yl)-2-methyl-2H-benzo[d][1,2,3]triazole] it was 100 to 1000 nM; in that of `Cc1nc2c(F)cc(-c3cc(F)c4[nH]c(C5CCNCC5)nc4c3)cn2n1` [Compound 149, 8-fluoro-6-(7-fluoro-2-(piperidin-4-yl)-1H-benzo[d]imidazol-5-yl)-2-methyl-[1,2,4]triazolo[1,5-a]pyridine], 1000 to 9000 nM; in that of `Cc1cn2nc(-c3cc(F)c4nc(C5CCNCC5)nn4c3)cc(C)c2n1` [Compound 150, 6-(2,8-dimethylimidazo[1,2-b]pyridazin-6-yl)-8-fluoro-2-(4-piperidyl)-[1,2,4]triazolo[1,5-a]pyridine], below 100 nM. The compound `Cc1cn2cc(-c3cc(F)c4nc(C5CCNCC5)nn4c3)cc(F)c2n1` [Compound 151, 8-fluoro-6-(8-fluoro-2-methylimidazo[1,2-a]pyridin-6-yl)-2-(piperidin-4-yl)-[1,2,4]triazolo[1,5-a]pyridine] showed an IC50 of 1000 to 9000 nM. The result for `CCc1nc(C)cn2cc(-c3cc(F)c4nc(C5CCNCC5)nn4c3)cc12` [Compound 152] reads below 100 nM; that for `Cc1cn2nc(-c3cc(F)c4nc(C5CCNCC5)cn4c3)cc(C(F)F)c2n1` [Compound 153, 8-(difluoromethyl)-6-(8-fluoro-2-(piperidin-4-yl)imidazo[1,2-a]pyridin-6-yl)-2-methylimidazo[1,2-b]pyridazine], below 100 nM. Compound `Cc1cn2nc(-c3cc(F)c4nc(C5CCNCC5)oc4c3)cc(C)c2n1` [Compound 154, 6-(2,8-dimethylimidazo[1,2-b]pyridazin-6-yl)-4-fluoro-2-(4-piperidyl)-1,3-benzoxazole] displayed an IC50 below 100 nM. In turn, `Cc1cn2cc(-c3cc(F)c4nc(C5CCNCC5)oc4c3)cc(C)c2n1` [Compound 155, 6-(2,8-dimethylimidazo[1,2-a]pyridin-6-yl)-4-fluoro-2-(piperidin-4-yl)benzo[d]oxazole] yielded a half-inhibitory concentration (IC50) of 1000 to 9000 nM.

With `Cc1cn2cc(-c3cc(F)c4nc(C5CCNCC5)oc4c3)cc(F)c2n1` [Compound 156, 4-fluoro-6-(8-fluoro-2-methylimidazo[1,2-a]pyridin-6-yl)-2-(piperidin-4-yl)benzo[d]oxazole], the IC50 was 1000 to 9000 nM. The result for `Cc1cc(-c2cc(F)c3nc(C4CCNCC4)oc3c2)cc2cn(C)nc12` [Compound 157, 6-(2,7-dimethyl-2H-indazol-5-yl)-4-fluoro-2-(piperidin-4-yl)benzo[d]oxazole] reads 100 to 1000 nM; that for `Cc1cn2nc(-c3cc(F)c4nc(C5(F)CCNCC5)cn4c3)cc(C)c2n1` [Compound 158, 6-(8-fluoro-2-(4-fluoropiperidin-4-yl)imidazo[1,2-a]pyridin-6-yl)-2,8-dimethylimidazo[1,2-b]pyridazine], below 100 nM. On to `Cc1cn2nc(-c3cc(F)c4nc(C56CNC(C5)C6)cn4c3)cc(C)c2n1` [Compound 159], for which the IC50 was 100 to 1000 nM. In the case of `Cc1cn2nc(-c3cc(F)c4nc(C5CCNC5)cn4c3)cc(C)c2n1` (stereo not drawn) [Compound 160, 6-(8-fluoro-2-(pyrrolidin-3-yl)imidazo[1,2-a]pyridin-6-yl)-2,8-dimethylimidazo[1,2-b]pyridazine] it was below 100 nM.

Compound `Cc1cn2nc(-c3cc(F)c4nc([C@H]5[C@@H]6CNC[C@@H]65)cn4c3)cc(C)c2n1` [Compound 161, 6-[2-[(1S,5R)-3-azabicyclo[3.1.0]hexan-6-yl]-8-fluoro-imidazo[1,2-a]pyridin-6-yl]-2,8-dimethyl-imidazo[1,2-b]pyridazine] gave an IC50 below 100 nM. `COc1cc2cc(-c3cc(F)c4nc(C5CCNCC5)cn4c3)ccc2cn1` [Compound 164, 6-(8-fluoro-2-(piperidin-4-yl)imidazo[1,2-a]pyridin-6-yl)-3-methoxyisoquinoline]: the IC50 lay within 100 to 1000 nM. The result for `Cc1cn2nc(-c3cc(F)c4nc(C5CCN(CC6CC6)CC5)cn4c3)cc(C)c2n1` [Compound 165, 6-(2-(1-(cyclopropylmethyl)piperidin-4-yl)-8-fluoroimidazo[1,2-a]pyridin-6-yl)-2,8-dimethylimidazo[1,2-b]pyridazine] reads below 100 nM; that for `Cc1cn2nc(-c3cc(F)c4nc(C5CCN(C)CC5)cn4c3)cc(C(F)F)c2n1` [Compound 166, 8-(difluoromethyl)-6-(8-fluoro-2-(1-methylpiperidin-4-yl)imidazo[1,2-a]pyridin-6-yl)-2-methylimidazo[1,2-b]pyridazine], below 100 nM. `Cc1cn2nc(-c3cc(F)c4nc(C5CCN(C6CC6)CC5)cn4c3)cc(C(F)F)c2n1` [Compound 167, 6-(2-(1-cyclopropylpiperidin-4-yl)-8-fluoroimidazo[1,2-a]pyridin-6-yl)-8-(difluoromethyl)-2-methylimidazo[1,2-b]pyridazine] gave an IC50 below 100 nM. For the compound `Cc1cn2nc(-c3cc(F)c4nc(C5CCC(N(C)C)CC5)cn4c3)cc(C)c2n1` (stereo not drawn) [Compound 168, 4-(6-(2,8-dimethylimidazo[1,2-b]pyridazin-6-yl)-8-fluoroimidazo[1,2-a]pyridin-2-yl)-N,N-dimethylcyclohexan-1-amine], the IC50 was below 100 nM.

In the case of `Cc1cn2nc(-c3cc(F)c4nc(C5CCOCC5)cn4c3)cc(C)c2n1` [Compound 169, 6-(8-fluoro-2-(tetrahydro-2H-pyran-4-yl)imidazo[1,2-a]pyridin-6-yl)-2,8-dimethylimidazo[1,2-b]pyridazine], the IC50 was in the range of 100 to 1000 nM. The result for `CN[C@H]1CC[C@H](c2cn3cc(-c4cc(F)c5nn(C)cc5c4)cc(F)c3n2)CC1` [Compound 170, (1r,4r)-4-(8-fluoro-6-(7-fluoro-2-methyl-2H-indazol-5-yl)imidazo[1,2-a]pyridin-2-yl)-N-methylcyclohexan-1-amine] reads below 100 nM; that for `Cc1cc(-c2cc(F)c3nc(C4CCN(C5CC5)CC4)cn3c2)nc2cn(C)nc12` [Compound 171, 5-(2-(1-cyclopropylpiperidin-4-yl)-8-fluoroimidazo[1,2-a]pyridin-6-yl)-2,7-dimethyl-2H-pyrazolo[4,3-b]pyridine], below 100 nM. In the case of `CCc1nc(C)cn2cc(-c3cc(F)c4nc(C5CCN(C6CC6)CC5)cn4c3)cc12` [Compound 172, 2-(1-cyclopropylpiperidin-4-yl)-6-(1-ethyl-3-methylpyrrolo[1,2-a]pyrazin-7-yl)-8-fluoroimidazo[1,2-a]pyridine] it was 100 to 1000 nM. Take `CCN1CCC(c2cn3cc(-c4cc(C)c5nn(C)cc5n4)cc(F)c3n2)CC1` [Compound 173, 5-(2-(1-ethylpiperidin-4-yl)-8-fluoroimidazo[1,2-a]pyridin-6-yl)-2,7-dimethyl-2H-pyrazolo[4,3-b]pyridine]: the IC50 was in the range of 100 to 1000 nM.

Source of the values: patent US20250353841A1 (BIOGEN MA INC., priority 2022, published 2025).
